The target of one test is T1, HiBit-BRM fusion protein (Homo sapiens, UniProt P51531).
T1 construct: expressed in transfected cells
The test can be described thus: HiBiT-BRM cell-based degradation assay (Nano-Glo HiBiT Lytic Detection, 24 h). The note with it: HeLa cells expressing HiBiT-BRM; for DC50: read-out: BRM HiBit Degradation IC50; for BRM HiBit Degradation Maximum measured: top dose 30 μM. The method, boiled down:
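Stable HiBiT-BRM HeLa line; 24 h compound exposure, top final 30 μM, 3-fold, 10 pts in duplicate. Lytic HiBiT/LgBiT luminescence readout. % degradation vs DMSO (0%) and 2 μM known BRM/BRG1 degrader (100%).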

For test [1], the target named is T2, HiBit-BRG1 fusion protein (Homo sapiens, UniProt P51532).
T2 construct: expressed in transfected cells
T2 sequence (P51532 whole entry, the tested form may be a part): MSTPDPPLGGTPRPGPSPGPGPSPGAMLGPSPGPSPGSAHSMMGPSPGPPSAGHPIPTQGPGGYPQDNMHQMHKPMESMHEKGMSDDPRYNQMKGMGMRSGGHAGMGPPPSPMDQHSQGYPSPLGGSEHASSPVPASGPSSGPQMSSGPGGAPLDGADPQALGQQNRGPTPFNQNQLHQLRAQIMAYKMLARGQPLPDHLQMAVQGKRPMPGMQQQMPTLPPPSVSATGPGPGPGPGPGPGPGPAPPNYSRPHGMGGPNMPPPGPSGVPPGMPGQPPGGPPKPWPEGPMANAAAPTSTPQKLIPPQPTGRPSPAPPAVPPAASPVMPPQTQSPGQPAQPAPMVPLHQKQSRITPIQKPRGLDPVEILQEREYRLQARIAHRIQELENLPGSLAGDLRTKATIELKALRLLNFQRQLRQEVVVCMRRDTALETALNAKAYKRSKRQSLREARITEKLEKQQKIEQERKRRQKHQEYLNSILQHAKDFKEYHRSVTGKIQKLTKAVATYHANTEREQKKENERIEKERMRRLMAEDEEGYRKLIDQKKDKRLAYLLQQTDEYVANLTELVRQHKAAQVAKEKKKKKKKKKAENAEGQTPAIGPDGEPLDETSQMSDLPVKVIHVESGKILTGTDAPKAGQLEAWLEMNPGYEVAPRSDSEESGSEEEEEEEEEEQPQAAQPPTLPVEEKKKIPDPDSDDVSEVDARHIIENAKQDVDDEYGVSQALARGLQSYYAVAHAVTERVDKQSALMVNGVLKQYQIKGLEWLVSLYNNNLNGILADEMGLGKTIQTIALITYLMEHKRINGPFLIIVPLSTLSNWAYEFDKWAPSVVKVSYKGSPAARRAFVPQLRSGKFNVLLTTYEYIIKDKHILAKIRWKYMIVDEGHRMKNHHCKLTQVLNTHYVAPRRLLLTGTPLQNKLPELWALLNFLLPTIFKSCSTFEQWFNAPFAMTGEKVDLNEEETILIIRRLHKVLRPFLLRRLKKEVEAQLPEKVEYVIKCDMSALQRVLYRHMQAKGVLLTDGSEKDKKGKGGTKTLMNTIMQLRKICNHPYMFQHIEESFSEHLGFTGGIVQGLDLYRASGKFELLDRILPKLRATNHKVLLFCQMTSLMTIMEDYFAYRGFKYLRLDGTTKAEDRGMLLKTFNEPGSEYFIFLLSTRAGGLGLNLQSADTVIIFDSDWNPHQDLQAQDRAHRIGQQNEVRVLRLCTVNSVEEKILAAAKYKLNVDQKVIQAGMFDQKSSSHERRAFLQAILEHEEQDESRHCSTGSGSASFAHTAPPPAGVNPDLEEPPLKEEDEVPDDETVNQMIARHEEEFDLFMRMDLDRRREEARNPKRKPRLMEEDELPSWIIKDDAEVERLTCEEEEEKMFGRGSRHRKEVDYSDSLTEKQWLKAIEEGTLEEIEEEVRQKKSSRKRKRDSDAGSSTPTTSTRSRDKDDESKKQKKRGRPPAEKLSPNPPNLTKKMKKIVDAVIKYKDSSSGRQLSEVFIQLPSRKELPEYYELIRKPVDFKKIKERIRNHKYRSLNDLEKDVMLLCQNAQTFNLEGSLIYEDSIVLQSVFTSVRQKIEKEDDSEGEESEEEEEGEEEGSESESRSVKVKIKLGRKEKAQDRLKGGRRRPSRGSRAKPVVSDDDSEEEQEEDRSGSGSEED
The test can be described thus: HiBiT-BRG1 cell-based degradation assay (Nano-Glo HiBiT Lytic Detection, 24 h). Particulars: for Dmax: HeLa, top dose 30 μM, read-out: BRG1 HiBit Degradation Maximum measured. The method, boiled down:
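Degradation is scaled from DMSO-treated cells (0%) to cells given 2 μM of a known BRM/BRG1 degrader (100%). HeLa cells stably carrying HiBiT-BRG1 plus LgBiT (5000/well) were lysed with Nano-Glo HiBiT detection reagent, shaken 10 min at RT, and luminescence read.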

The mark [2] stands for this setting: HeLa cells expressing HiBit-BRG1 and LgBit, read-out: BRG1 HiBit Degradation IC50.
Setting [3] is: HeLa cells expressing HiBit-BRG1 and LgBit.

Structures can show the parent of a compound that is named as a salt. Where two headings read alike, the source gives them in different places.

T1 sequence (P51531 whole entry, the tested form may be a part): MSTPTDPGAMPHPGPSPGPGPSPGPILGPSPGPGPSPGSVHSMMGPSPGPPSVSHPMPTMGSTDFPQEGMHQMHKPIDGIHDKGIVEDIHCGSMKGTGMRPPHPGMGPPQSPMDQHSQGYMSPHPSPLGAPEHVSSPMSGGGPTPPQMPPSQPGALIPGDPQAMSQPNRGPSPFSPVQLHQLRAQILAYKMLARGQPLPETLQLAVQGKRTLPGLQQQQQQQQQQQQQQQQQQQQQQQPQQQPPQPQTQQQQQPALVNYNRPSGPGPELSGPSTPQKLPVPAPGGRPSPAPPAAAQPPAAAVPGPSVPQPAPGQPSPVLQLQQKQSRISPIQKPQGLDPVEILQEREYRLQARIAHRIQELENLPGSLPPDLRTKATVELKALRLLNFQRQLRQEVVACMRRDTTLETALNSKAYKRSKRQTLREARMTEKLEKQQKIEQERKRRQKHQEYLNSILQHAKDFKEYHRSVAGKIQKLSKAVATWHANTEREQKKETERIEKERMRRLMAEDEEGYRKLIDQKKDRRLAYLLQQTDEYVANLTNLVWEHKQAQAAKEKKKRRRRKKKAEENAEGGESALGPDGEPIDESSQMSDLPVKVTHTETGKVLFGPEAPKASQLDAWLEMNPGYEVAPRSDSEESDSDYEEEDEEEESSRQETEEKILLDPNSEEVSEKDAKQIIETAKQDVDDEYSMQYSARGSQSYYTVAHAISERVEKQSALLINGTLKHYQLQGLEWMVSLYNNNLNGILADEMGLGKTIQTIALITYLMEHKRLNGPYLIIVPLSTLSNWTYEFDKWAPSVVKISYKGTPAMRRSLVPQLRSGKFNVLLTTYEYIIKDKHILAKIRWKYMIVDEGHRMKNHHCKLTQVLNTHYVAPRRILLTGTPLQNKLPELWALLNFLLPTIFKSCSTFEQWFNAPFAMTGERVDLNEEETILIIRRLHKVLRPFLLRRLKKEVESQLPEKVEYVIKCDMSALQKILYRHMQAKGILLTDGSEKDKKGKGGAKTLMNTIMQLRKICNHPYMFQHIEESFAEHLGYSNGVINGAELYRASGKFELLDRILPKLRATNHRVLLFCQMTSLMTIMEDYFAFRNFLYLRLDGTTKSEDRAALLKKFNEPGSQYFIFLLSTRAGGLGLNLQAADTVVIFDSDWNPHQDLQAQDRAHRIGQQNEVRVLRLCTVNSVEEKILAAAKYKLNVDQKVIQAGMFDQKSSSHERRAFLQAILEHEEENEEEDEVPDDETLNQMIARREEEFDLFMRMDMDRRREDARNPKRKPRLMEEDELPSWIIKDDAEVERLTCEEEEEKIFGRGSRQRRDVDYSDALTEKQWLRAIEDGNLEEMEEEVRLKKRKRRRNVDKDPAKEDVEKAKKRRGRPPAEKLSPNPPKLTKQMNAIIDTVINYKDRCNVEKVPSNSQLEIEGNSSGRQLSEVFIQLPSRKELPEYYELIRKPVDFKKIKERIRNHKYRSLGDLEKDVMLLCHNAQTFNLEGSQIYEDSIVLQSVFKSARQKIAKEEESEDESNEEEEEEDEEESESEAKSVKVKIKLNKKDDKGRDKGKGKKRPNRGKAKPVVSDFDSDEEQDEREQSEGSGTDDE

As to `CS(=O)(=O)n1ccc(C(=O)N[C@@H](COCc2ccc(C(=O)N3CCN(CCOc4ccc5c(c4)C(=O)N(C4CCC(=O)NC4=O)C5=O)CC3)cc2)C(=O)Nc2nc(-c3ccccc3)cs2)c1` (stereo partly drawn) [Compound 191, (2S)-3-([4-[4-(2-[[2-(2,6-dioxopiperidin-3-yl)-1,3-dioxoisoindol-5-yl]oxy]ethyl)piperazine-1-carbonyl]phenyl]methoxy)-2-[(1-methanesulfonylpyrrol-3-yl)formamido]-N-(4-phenyl-1,3-thiazol-2-yl)propanamide; formic acid], at HiBit-BRM fusion protein, the DC50 is > 10 µM and the “BRM HiBit Degradation Maximum measured” value is “C (‘C’ = Maximum degradation <50%)”. In addition, in test [1] (setting [2]), the DC50 was > 10 µM. For the same molecule, the Dmax in test [1] (setting [3]) is < 50%.
`CS(=O)(=O)n1ccc(C(=O)N[C@@H](COCc2ccc(C(=O)N3CCC(CN4CCN(c5ccc6c(c5)C(=O)N(C5CCC(=O)NC5=O)C6=O)CC4)CC3)cc2)C(=O)Nc2nc(-c3ccccc3)cs2)c1` (stereo partly drawn) [Compound 192, (2S)-3-([4-[4-([4-[2-(2,6-dioxopiperidin-3-yl)-1,3-dioxoisoindol-5-yl]piperazin-1-yl]methyl)piperidine-1-carbonyl]phenyl]methoxy)-2-[(1-methanesulfonylpyrrol-3-yl)formamido]-N-(4-phenyl-1,3-thiazol-2-yl)propanamide; formic acid]: on HiBit-BRM fusion protein, the DC50 is > 10 µM and the “BRM HiBit Degradation Maximum measured” value is “C (‘C’ = Maximum degradation <50%)”. Also, the DC50 in test [1] (setting [2]) is > 10 µM. In addition, the Dmax in test [1] (setting [3]) is < 50%.
As for `CS(=O)(=O)n1ccc(C(=O)N[C@@H](COCc2ccc(C(=O)N3CC(CN4CCN(c5ccc6c(c5)C(=O)N(C5CCC(=O)NC5=O)C6=O)CC4)C3)cc2)C(=O)Nc2nc(-c3ccccc3)cs2)c1` (stereo partly drawn) [Compound 193, (2S)-3-([4-[3-([4-[2-(2,6-dioxopiperidin-3-yl)-1,3-dioxoisoindol-5-yl]piperazin-1-yl]methyl)azetidine-1-carbonyl]phenyl]methoxy)-2-[(1-methanesulfonylpyrrol-3-yl)formamido]-N-(4-phenyl-1,3-thiazol-2-yl)propanamide; formic acid], at HiBit-BRM fusion protein, the DC50 is 0.1 to 1 µM; the “BRM HiBit Degradation Maximum measured” value is “B (‘B’ = Maximum degradation ≥50% and ≤75%)”. Besides, the DC50 in test [1] (setting [2]) is 0.1 to 1 µM. In addition, in test [1] (setting [3]), the Dmax was > 75%.
For `CS(=O)(=O)n1ccc(C(=O)N[C@@H](COCc2ccc(C(=O)N3CC(Oc4ccc5c(c4)C(=O)N(C4CCC(=O)NC4=O)C5=O)C3)cc2)C(=O)Nc2nc(-c3ccccc3)cs2)c1` (stereo partly drawn) [Compound 194, N-((2S)-3-((4-(3-((2-(2,6-dioxopiperidin-3-yl)-1,3-dioxoisoindolin-5-yl)oxy)azetidine-1-carbonyl)benzyl)oxy)-1-oxo-1-((4-phenylthiazol-2-yl)amino)propan-2-yl)-1-(methylsulfonyl)-1H-pyrrole-3-carboxamide], on HiBit-BRM fusion protein, the DC50 was > 10 µM and the “BRM HiBit Degradation Maximum measured” value is listed as “C (‘C’ = Maximum degradation <50%)”. Also, the DC50 in test [1] (setting [2]) was > 10 µM. For the same molecule, the Dmax in test [1] (setting [3]) was < 50%.
Consider `CS(=O)(=O)n1ccc(C(=O)N[C@@H](COCc2ccc(C(=O)N3CCC(CCCCN4CCN(c5ccc6c(c5)C(=O)N(C5CCC(=O)NC5=O)C6=O)CC4)CC3)cc2)C(=O)Nc2nc(-c3ccccc3)cs2)c1` (stereo partly drawn) [Compound 195, N-((2S)-3-((4-(4-(4-(4-(2-(2,6-dioxopiperidin-3-yl)-1,3-dioxoisoindolin-5-yl)piperazin-1-yl)butyl)piperidine-1-carbonyl)benzyl)oxy)-1-oxo-1-((4-phenylthiazol-2-yl)amino)propan-2-yl)-1-(methylsulfonyl)-1H-pyrrole-3-carboxamide formate], for which, on HiBit-BRM fusion protein, the DC50 is > 10 µM and the “BRM HiBit Degradation Maximum measured” value is recorded as “C (‘C’ = Maximum degradation <50%)”. Also, in test [1] (setting [2]), the DC50 is > 10 µM. In addition, in test [1] (setting [3]), the Dmax is < 50%.
As for `CS(=O)(=O)n1ccc(C(=O)N[C@@H](COCc2ccc(C(=O)NCCOCCOCCNC(=O)COc3cccc4c3C(=O)N(C3CCC(=O)NC3=O)C4=O)cc2)C(=O)Nc2nc(-c3ccccc3)cs2)c1` (stereo partly drawn) [Compound 196], at HiBit-BRM fusion protein, the DC50 is > 10 µM and the “BRM HiBit Degradation Maximum measured” value is reported as “C (‘C’ = Maximum degradation <50%)”. For the same molecule, the DC50 in test [1] (setting [2]) was > 10 µM. Further, the Dmax in test [1] (setting [3]) was < 50%.
Turning to `CS(=O)(=O)n1ccc(C(=O)N[C@@H](COCc2ccc(C(=O)N3CC(COc4cccc5c4C(=O)N(C4CCC(=O)NC4=O)C5=O)C3)cc2)C(=O)Nc2nc(-c3ccccc3)cs2)c1` (stereo partly drawn) [Compound 197, (2S)-3-([4-[3-([[2-(2,6-dioxopiperidin-3-yl)-1,3-dioxoisoindol-4-yl]oxy]methyl)azetidine-1-carbonyl]phenyl]methoxy)-2-[(1-methanesulfonylpyrrol-3-yl)formamido]-N-(4-phenyl-1,3-thiazol-2-yl)propanamide], on HiBit-BRM fusion protein, the DC50 is > 10 µM and the “BRM HiBit Degradation Maximum measured” value is reported as “C (‘C’ = Maximum degradation <50%)”. For the same molecule, the DC50 in test [1] (setting [2]) was > 10 µM. Moreover, in test [1] (setting [3]), the Dmax is < 50%.
In the case of `CS(=O)(=O)n1ccc(C(=O)N[C@@H](COCc2ccc(C(=O)N3CC(COc4ccc5c(c4)C(=O)N(C4CCC(=O)NC4=O)C5=O)C3)cc2)C(=O)Nc2nc(-c3ccccc3)cs2)c1` (stereo partly drawn) [Compound 198, (2S)-3-([4-[3-([[2-(2,6-dioxopiperidin-3-yl)-1,3-dioxoisoindol-5-yl]oxy]methyl)azetidine-1-carbonyl]phenyl]methoxy)-2-[(1-methanesulfonylpyrrol-3-yl)formamido]-N-(4-phenyl-1,3-thiazol-2-yl)propanamide], at HiBit-BRM fusion protein, the DC50 is > 10 µM and the “BRM HiBit Degradation Maximum measured” value is “C (‘C’ = Maximum degradation <50%)”. For the same molecule, the DC50 in test [1] (read-out: BRG1 HiBit Degradation IC50, HeLa cells expressing HiBit-BRG1 and LgBit) is > 10 µM.
For the molecule `CS(=O)(=O)n1ccc(C(=O)N[C@@H](COCc2ccc(C(=O)N3CCC4(CC3)CC(Oc3ccc5c(c3)C(=O)N(C3CCC(=O)NC3=O)C5=O)C4)cc2)C(=O)Nc2nc(-c3ccccc3)cs2)c1` (stereo partly drawn) [Compound 199, (2S)-3-[[4-(2-[[2-(2,6-dioxopiperidin-3-yl)-1,3-dioxoisoindol-5-yl]oxy]-7-azaspiro[3.5]nonane-7-carbonyl)phenyl]methoxy]-2-[(1-methanesulfonylpyrrol-3-yl)formamido]-N-(4-phenyl-1,3-thiazol-2-yl)propanamide], on HiBit-BRM fusion protein, the DC50 is > 10 µM and the “BRM HiBit Degradation Maximum measured” value is “C (‘C’ = Maximum degradation <50%)”. The DC50 in test [1] (setting [2]) is > 10 µM. Also, in test [1] (setting [3]), the Dmax is < 50%.
As to `CS(=O)(=O)n1ccc(C(=O)N[C@@H](COCc2ccc(C(=O)NCCOc3ccc4c(c3)C(=O)N(C3CCC(=O)NC3=O)C4=O)cc2)C(=O)Nc2nc(-c3ccccc3)cs2)c1` (stereo partly drawn) [Compound 200, N-(2-[[2-(2,6-dioxopiperidin-3-yl)-1,3-dioxoisoindol-5-yl]oxy]ethyl)-4-[[(2S)-2-[(1-methanesulfonylpyrrol-3-yl)formamido]-2-[(4-phenyl-1,3-thiazol-2-yl)carbamoyl]ethoxy]methyl]benzamide], on HiBit-BRM fusion protein, the DC50 was > 10 µM and the “BRM HiBit Degradation Maximum measured” value is listed as “C (‘C’ = Maximum degradation <50%)”. In test [1] (setting [2]), the DC50 is > 10 µM. The Dmax in test [1] (setting [3]) was < 50%.
As for `CS(=O)(=O)n1ccc(C(=O)N[C@@H](COCc2ccc(C(=O)NCCCCCCNc3ccc4c(c3)C(=O)N(C3CCC(=O)NC3=O)C4=O)cc2)C(=O)Nc2nc(-c3ccccc3)cs2)c1` (stereo partly drawn) [Compound 201, N-(6-[[2-(2,6-dioxopiperidin-3-yl)-1,3-dioxoisoindol-5-yl]amino]hexyl)-4-[[(2S)-2-[(1-methanesulfonylpyrrol-3-yl)formamido]-2-[(4-phenyl-1,3-thiazol-2-yl)carbamoyl]ethoxy]methyl]benzamide], the DC50 at HiBit-BRM fusion protein was 0.1 to 1 µM; in test [1] (setting [2]), < 0.1 µM. Besides, the “BRM HiBit Degradation Maximum measured” value on HiBit-BRM fusion protein is “A (‘A’ = Maximum degradation >75%)”. The Dmax in test [1] (setting [3]) was > 75%.
Consider `CS(=O)(=O)n1ccc(C(=O)N[C@@H](COCc2ccc(C(=O)NCCOCCOCCOCCNC(=O)COc3ccc4c(c3)C(=O)N(C3CCC(=O)NC3=O)C4=O)cc2)C(=O)Nc2nc(-c3ccccc3)cs2)c1` (stereo partly drawn) [Compound 202, (2S)-3-[(4-[[2-(2-[2-[2-(2-[[2-(2,6-dioxopiperidin-3-yl)-1,3-dioxoisoindol-5-yl]oxy]acetamido)ethoxy]ethoxy]ethoxy)ethyl]carbamoyl]phenyl)methoxy]-2-[(1-methanesulfonylpyrrol-3-yl)formamido]-N-(4-phenyl-1,3-thiazol-2-yl)propanamide], for which, on HiBit-BRM fusion protein, the DC50 was > 10 µM and the “BRM HiBit Degradation Maximum measured” value is “C (‘C’ = Maximum degradation <50%)”. Moreover, in test [1] (setting [2]), the DC50 is > 10 µM. Also, the Dmax in test [1] (setting [3]) was < 50%.
Consider `CS(=O)(=O)n1ccc(C(=O)N[C@@H](COCc2ccc(C(=O)NCCOCCOCCNC(=O)COc3ccc4c(c3)C(=O)N(C3CCC(=O)NC3=O)C4=O)cc2)C(=O)Nc2nc(-c3ccccc3)cs2)c1` (stereo partly drawn) [Compound 203, (2S)-3-([4-[(2-[2-[2-(2-[[2-(2,6-dioxopiperidin-3-yl)-1,3-dioxoisoindol-5-yl]oxy]acetamido)ethoxy]ethoxy]ethyl)carbamoyl]phenyl]methoxy)-2-[(1-methanesulfonylpyrrol-3-yl)formamido]-N-(4-phenyl-1,3-thiazol-2-yl)propanamide], for which, at HiBit-BRM fusion protein, the DC50 is > 10 µM and the “BRM HiBit Degradation Maximum measured” value is listed as “C (‘C’ = Maximum degradation <50%)”. Also, the DC50 in test [1] (setting [2]) is > 10 µM. The Dmax in test [1] (setting [3]) was < 50%.

(Values after US12662479B2 (Foghorn Therapeutics Inc., priority 2020, dated 2026).)
